This is an account of results in patent publication US11306111B2, “Organophosphate derivatives” (January Therapeutics, Inc., priority 2017, dated 2022).

Broadly, the EC50 is the concentration at which the effect is half-maximal.

The assay concerns BxPC-3 cells. Nature of the assay: Cellular proliferation assay in BxPC-3 cells (Cell-Titer Glo, 120 h). The note with it: Homo sapiens, 120 h incubation, Cell-Titer Glo luminescence. The format is cell-based. The method, then:
Compounds are tested for their ability to impair cancer cell proliferation and/or induce cell death. For cellular proliferation studies, cultured cells are treated with the test compound for 24-120 hours. After compound treatment, cell proliferation is assessed by using methods including, but not limited to, Cell-Titer-Glo® (Promega), Alamar Blue, LIVE/DEAD® (ThermoFisher), BrdU incorporation, and live-cell imaging.
The cancer lines used include, but are not limited to, PANC-1, MiaPaCa-2, BxPC-3 (pancreatic cancer), RT112 (bladder cancer), MCF-7 (breast cancer), and A549 (non-small cell lung cancer). Gemcitabine Hydrochloride serves as a control for activity.
Protocol for the Cellular Proliferation Assay in BxPC-3 Cells
BxPC-3 (pancreatic adenocarcinoma) cell line was purchased from the American Type Culture Collection (Catalog #CRL-1687) and grown in RPMI-1640 medium (e.g. Corning #10-040-CV) with 10% Heat Inactivated Fetal Calf Serum at 37° C. and 5% CO2 (as recommended by the ATCC).
Cultures were grown in […] plates to 80% confluence, and cells were trypsinized to a single-cell suspension. Cells were then resuspended in growth medium to a density of […]. They were then plated into 96-well assay plates (Corning #3917) in a volume of 100 ul/well (2,500 cells/well). Cells were allowed to adhere to plates for 24 h at 37° C. and 5% CO2). Compounds were then added to the wells using an […] serial dilution scheme (over 9 dilutions, generally ranging from 30 μM-30 pM), and the cells were incubated for an additional 120 hours. After 120 h, 90 ul of Cell-Titer Glo reagent (Promega #G7572) was added, and the plates were read using a luminescence counter (e.g., BioTek Synergy HTX at 100 ms read time).
Consider `CCCCCCCCCCOP1(=O)OC[C@H]2O[C@@H](n3ccc(N)nc3=O)C(F)(F)[C@@H]2O1` (single isomer, unassigned) [Compound 42A], for which the EC50 is < 0.001 µM.
Regarding `CCCCCCCCCCCCCCCCOP1(=O)OC[C@H]2O[C@@H](n3ccc(N)nc3=O)C(F)(F)[C@@H]2O1` (single isomer, unassigned) [Compound 43A], the EC50 lay within 0.001 to 0.1 µM.
Consider `CCCCCCCCCCCCCCCCCCOP1(=O)OC[C@H]2O[C@@H](n3ccc(N)nc3=O)C(F)(F)[C@@H]2O1` (single isomer, unassigned) [Compound 44A], for which the EC50 lay within 0.001 to 0.1 µM.
For the compound `CCCCCCCCCCCCCCCCCCCCOP1(=O)OC[C@H]2O[C@@H](n3ccc(N)nc3=O)C(F)(F)[C@@H]2O1` (single isomer, unassigned) [Compound 45A], the EC50 was < 1 µM.
The value for `CCCCCCCCCCCCCCCCCCCCCCOP1(=O)OC[C@H]2O[C@@H](n3ccc(N)nc3=O)C(F)(F)[C@@H]2O1` (single isomer, unassigned) [Compound 46A] was 1 to 25 µM; that for `CCCCCCCCC(=O)O[C@@H]1[C@@H](COP(=O)(OCCCCCC)OCCCCCC)O[C@@H](n2ccc(N)nc2=O)C1(F)F` [Compound 1, (2R,3R,5R)-5-(4-amino-2-oxopyrimidin-1(2H)-yl)-2-(((bis(hexyloxy)phosphoryl)oxy)methyl)-4,4-difluorotetrahydrofuran-3-yl nonanoate] was 0.001 to 0.1 µM; that for `CCCCCCCCC(=O)O[C@@H]1[C@@H](COP2(=O)OCc3ccccc3O2)O[C@@H](n2ccc(N)nc2=O)C1(F)F` (stereo partly drawn) [Compound 2, (2R,3R,5R)-5-(4-amino-2-oxopyrimidin-1(2H)-yl)-4,4-difluoro-2-(((2-oxido-4H-benzo[d][1,3,2]dioxaphosphinin-2-yl)oxy)methyl)tetrahydrofuran-3-yl nonanoate] was < 0.001 µM.
As for `CCCCCCCCC(=O)O[C@@H]1[C@@H](COP(=O)(OCOC(=O)C(C)(C)C)OCOC(=O)C(C)(C)C)O[C@@H](n2ccc(N)nc2=O)C1(F)F` [Compound 3], the figure is < 0.001 µM; as for `CC(C)OP(=O)(OC[C@H]1O[C@@H](n2ccc(N)nc2=O)C(F)(F)[C@@H]1OC(=O)C(C)C)OC(C)C` [Compound 16, (2R,3R,5R)-5-(4-amino-2-oxopyrimidin-1(2H)-(((diisopropoxyphosphoryl)oxy)methyl)-4,4-difluorotetrahydrofuran-3-yl isobutyrate], < 1 µM; as for `CCCOP(=O)(OCCC)OC[C@H]1O[C@@H](n2ccc(N)nc2=O)C(F)(F)[C@@H]1OC(=O)CCC` [Compound 17, (2R,3R,5R)-5-(4-amino-2-oxopyrimidin-1(2H)-(((dipropoxyphosphoryl)oxy)methyl)-4,4-difluorotetrahydrofuran-3-yl butyrate], 1 to 25 µM.
`CCCCCOP(=O)(OCCCCC)OC[C@H]1O[C@@H](n2ccc(N)nc2=O)C(F)(F)[C@@H]1OC(=O)CCCCC` [Compound 18, (2R,3R,5R)-5-(4-amino-2-oxopyrimidin-1(2H)-yl)-2-(((bis(pentyloxy)phosphoryl)oxy)methyl)-4,4-difluorotetrahydrofuran-3-yl hexanoate]: the concentration for a half-maximal effect (EC50) was < 1 µM.
For the compound `CCCCCCCOP(=O)(OCCCCCCC)OC[C@H]1O[C@@H](n2ccc(N)nc2=O)C(F)(F)[C@@H]1OC(=O)CCCCCCC` [Compound 19, (2R,3R,5R)-5-(4-amino-2-oxopyrimidin-1(2H)-yl)-2-(((bis(heptyloxy)phosphoryl)oxy)methyl)-4,4-difluorotetrahydrofuran-3-yl octanoate], the EC50 is < 1 µM.
`CCCCCCCCCCCCCCCCC(=O)O[C@@H]1[C@@H](COP(=O)(OCCCCCCCC)OCCCCCCCC)O[C@@H](n2ccc(N)nc2=O)C1(F)F` [Compound 20, (2R,3R,5R)-5-(4-amino-2-oxopyrimidin-1(2H)-yl)-2-(((bis(octyloxy)phosphoryl)oxy)methyl)-4,4-difluorotetrahydrofuran-3-yl heptadecanoate]: the EC50 was in the range of 1 to 25 µM.
With `CCCCCCCCCCOP(=O)(OCCCCCCCCCC)OC[C@H]1O[C@@H](n2ccc(N)nc2=O)C(F)(F)[C@@H]1OC(=O)CCCCCCCCCC` [Compound 21, (2R,3R,5R)-5-(4-amino-2-oxopyrimidin-1(2H)-yl)-2-(((bis(decyloxy)phosphoryl)oxy)methyl)-4,4-difluorotetrahydrofuran-3-yl undecanoate], the half-maximal effective concentration (EC50) was in the range of 1 to 25 µM.
As to `CCCCCCCCCCCCOP(=O)(OCCCCCCCCCCCC)OC[C@H]1O[C@@H](n2ccc(N)nc2=O)C(F)(F)[C@@H]1OC(=O)CCCCCCCCCCCC` [Compound 22, (2R,3R,5R)-5-(4-amino-2-oxopyrimidin-1(2H)-yl)-2-(((bis(dodecyloxy)phosphoryl)oxy)methyl)-4,4-difluorotetrahydrofuran-3-yl tridecanoate], the concentration for a half-maximal effect (EC50) lay in the range of 1 to 25 µM.
As to `CCCCCCCCCCCCCCOP(=O)(OCCCCCCCCCCCCCC)OC[C@H]1O[C@@H](n2ccc(N)nc2=O)C(F)(F)[C@@H]1OC(=O)CCCCCCCCCCCCCC` [Compound 23, (2R,3R,5R)-5-(4-amino-2-oxopyrimidin-1(2H)-yl)-2-(((bis(tetradecyloxy)phosphoryl)oxy)methyl)-4,4-difluorotetrahydrofuran-3-yl pentadecanoate], the EC50 lay within 1 to 25 µM.
As to `Nc1ccn([C@@H]2O[C@H](COP(=O)(OC3CCCCC3)OC3CCCCC3)[C@@H](OC(=O)C3CCCCC3)C2(F)F)c(=O)n1` [Compound 24, (2R,3R,5R)-5-(4-amino-2-oxopyrimidin-1(2H)-(((bis(cyclohexyloxy)phosphoryl)oxy)methyl)-4,4-difluorotetrahydrofuran-3-yl cyclohexanecarboxylate], the EC50 was in the range of 1 to 25 µM.
As for `Nc1ccn([C@@H]2O[C@H](COP(=O)(Oc3ccccc3)Oc3ccccc3)[C@@H](OC(=O)c3ccccc3)C2(F)F)c(=O)n1` [Compound 25, (2R,3R,5R)-5-(4-amino-2-oxopyrimidin-1(2H)-yl)-2-(((diphenoxyphosphoryl)oxy)methyl)-4,4-difluorotetrahydrofuran-3-yl benzoate], the figure is 1 to 25 µM; as for `CCCCCCCCCCCCC(=O)O[C@@H]1[C@@H](COP2(=O)OCc3ccccc3O2)O[C@@H](n2ccc(N)nc2=O)C1(F)F` (stereo partly drawn) [Compound 28, (2R,3R,5R)-5-(4-amino-2-oxopyrimidin-1(2H)-yl)-4,4-difluoro-2-(((2-oxido-4H-benzo[d][1,3,2]dioxaphosphinin-2-yl)oxy)methyl)tetrahydrofuran-3-yl tridecanoate], < 0.001 µM.
For the compound `CCCCCCCCCCCCCCC(=O)O[C@@H]1[C@@H](COP2(=O)OCc3ccccc3O2)O[C@@H](n2ccc(N)nc2=O)C1(F)F` (stereo partly drawn) [Compound 29, (2R,3R,5R)-5-(4-amino-2-oxopyrimidin-1(2H)-yl)-4,4-difluoro-2-(((2-oxido-4H-benzo[d][1,3,2]dioxaphosphinin-2-yl)oxy)methyl)tetrahydrofuran-3-yl pentadecanoate], the EC50 is < 0.001 µM.
The value for `CCCCCCCCCCCCCCCCC(=O)O[C@@H]1[C@@H](COP2(=O)OCc3ccccc3O2)O[C@@H](n2ccc(N)nc2=O)C1(F)F` (stereo partly drawn) [Compound 30, (2R,3R,5R)-5-(4-amino-2-oxopyrimidin-1(2H)-yl)-4,4-difluoro-2-(((2-oxido-4H-benzo[d][1,3,2]dioxaphosphinin-2-yl)oxy)methyl)tetrahydrofuran-3-yl heptadecanoate] was < 0.001 µM; that for `CCCCCCCCCCCCCCCCC(=O)O[C@@H]1[C@@H](COP2(=O)OCc3cccc(C)c3O2)O[C@@H](n2ccc(N)nc2=O)C1(F)F` (stereo partly drawn) [Compound 31, (2R,3R,5R)-5-(4-amino-2-oxopyrimidin-1(2H)-yl)-4,4-difluoro-2-(((8-methyl-2-oxido-4H-benzo[d][1,3,2]dioxaphosphinin-2-yl)oxy)methyl)tetrahydrofuran-3-yl heptadecanoate] was < 0.001 µM; that for `CCCCCCCCCCCCCCCCC(=O)O[C@@H]1[C@@H](COP2(=O)OCc3c(C)cccc3O2)O[C@@H](n2ccc(N)nc2=O)C1(F)F` (stereo partly drawn) [Compound 32, (2R,3R,5R)-5-(4-amino-2-oxopyrimidin-1(2H)-yl)-4,4-difluoro-2-(((5-methyl-2-oxido-4H-benzo[d][1,3,2]dioxaphosphinin-2-yl)oxy)methyl)tetrahydrofuran-3-yl heptadecanoate] was < 0.001 µM.
Consider `CCCCCCCCCCCCC(=O)O[C@@H]1[C@@H](COP(=O)(OCOC(=O)C(C)(C)C)OCOC(=O)C(C)(C)C)O[C@@H](n2ccc(N)nc2=O)C1(F)F` [Compound 33], for which the concentration for a half-maximal effect (EC50) was < 0.001 µM.
On to `CCCCCCCCCCCCCCC(=O)O[C@@H]1[C@@H](COP(=O)(OCOC(=O)C(C)(C)C)OCOC(=O)C(C)(C)C)O[C@@H](n2ccc(N)nc2=O)C1(F)F` [Compound 34], for which the EC50 is < 0.001 µM.
As for `CCCCCCCCCCCCCCCCC(=O)O[C@@H]1[C@@H](COP(=O)(OCOC(=O)C(C)(C)C)OCOC(=O)C(C)(C)C)O[C@@H](n2ccc(N)nc2=O)C1(F)F` [Compound 35], the figure is < 0.001 µM; as for `CCCCCCCCCCCCCCCCCCC(=O)O[C@@H]1[C@@H](COP(=O)(OCOC(=O)C(C)(C)C)OCOC(=O)C(C)(C)C)O[C@@H](n2ccc(N)nc2=O)C1(F)F` [Compound 36], < 0.001 µM.
